The values that follow come from ChEMBL document CHEMBL3727358, “Inhibitors of inducible form of 6-phosphofructose-2-kinase” (2014).

Assay [1] concerns the target T1, 6-phosphofructo-2-kinase/fructose-2,6-bisphosphatase 3 (Homo sapiens, UniProt Q16875). The assay is described as follows: Inhibition of iPFK2 (unknown origin) assessed as reduction in enzyme-mediated fructose-6-phosphate phosphorylation by measuring ATP consumption incubated for 3 hrs by luciferase-luciferin-coupled chemiluminescence assay.
Assay [2] addresses T1, 6-phosphofructo-2-kinase/fructose-2,6-bisphosphatase 3. Briefly: Inhibition of iPFK2 (unknown origin) assessed as reduction in enzyme-mediated fructose-6-phosphate phosphorylation by measuring NADH absorbance pre-incubated for 10 mins before ATP/substrate addition followed by incubation for 1 hr by UV-Visible spectrometry based iPFK-2/PPI-PFK coupled enzyme assay.

pIC50: −log10 of the molar value.

T1 sequence (Q16875 whole entry): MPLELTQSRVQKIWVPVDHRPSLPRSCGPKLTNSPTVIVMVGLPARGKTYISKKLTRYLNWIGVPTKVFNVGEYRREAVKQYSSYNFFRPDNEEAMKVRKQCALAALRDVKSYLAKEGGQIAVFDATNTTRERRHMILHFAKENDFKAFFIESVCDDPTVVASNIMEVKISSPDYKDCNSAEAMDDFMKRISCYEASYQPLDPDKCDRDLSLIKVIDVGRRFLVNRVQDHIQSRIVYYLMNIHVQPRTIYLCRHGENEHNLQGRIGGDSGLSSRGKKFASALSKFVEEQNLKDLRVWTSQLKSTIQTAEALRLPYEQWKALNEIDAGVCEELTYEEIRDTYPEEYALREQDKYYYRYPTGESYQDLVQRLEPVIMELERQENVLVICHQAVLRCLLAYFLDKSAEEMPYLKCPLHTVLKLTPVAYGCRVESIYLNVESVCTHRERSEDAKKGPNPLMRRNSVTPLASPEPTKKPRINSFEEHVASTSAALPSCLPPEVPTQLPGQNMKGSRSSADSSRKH

In general, pIC50 refers to the negative decadic logarithm of the IC50, by convention in mol/L. With `COc1cccc([C@H](C)Nc2cc(-c3ccc4c(c3)CCO4)nc(C)n2)c1`, the negative-log IC50 (pIC50) in assay [1] and in assay [2] was 6.30 in each case.
Take `Cc1nc(NCc2cc(O)ccc2F)cc(-c2ccc3ncsc3c2)n1`: the negative-log IC50 (pIC50) in assay [1] and in assay [2] was 6.30 in each case.
On to `Cc1nc(NC(C)c2cccc(NC(=O)c3ccn[nH]3)c2)cc(-c2ccc3ncsc3c2)n1` (configuration not stated), for which the pIC50 in assay [1] is < 6.00; in assay [2], 6.30.
On the same counts, the results for `COc1ccc(Br)c(CNc2cc(-c3ccc4ncsc4c3)nc(C)n2)c1` are < 6.00 and 6.30.
`Cc1cc(-c2cc(N[C@@H]3CCCc4ccccc43)nc(C)n2)ccn1`: the pIC50 in assay [1] and in assay [2] was < 6.00 throughout.
As for `Cc1nc(NC(C)c2cccc(-c3ccc[nH]3)c2)cc(-c2ccc3ncsc3c2)n1` (configuration not stated), the values for the pIC50 in assay [1] and in assay [2] were < 6.00 and 6.30, respectively.
The matching figures for `C#CCOc1cccc(C(C)Nc2cc(-c3ccc4ncsc4c3)nc(C)n2)c1` (configuration not stated): 6.30 and 6.30.
The matching figures for `Cc1nc(NC(C)c2cccc(OCC(=O)NC3CCCCC3)c2)cc(-c2ccc3ncsc3c2)n1` (configuration not stated): 6.30 and 6.30.
For `COc1cccc([C@H](C)Nc2cc(-c3cc4ccccc4o3)nc(C)n2)c1`, the negative logarithm of the IC50 (pIC50) in assay [1] and in assay [2] was < 6.00 throughout.
Take `Cc1nc(NCc2ccccc2F)cc(-c2ccc3ncsc3c2)n1`: the pIC50 in assay [1] was 6.30; in assay [2], < 6.00.
Take `COCCNS(=O)(=O)c1cccc(C(C)Nc2cc(-c3ccc4ncsc4c3)nc(C)n2)c1` (configuration not stated): the negative-log IC50 (pIC50) in assay [1] and in assay [2] was < 6.00 in each case.
Turning to `COc1cccc(-c2cc(NC(C)c3cccc(O)c3)nc(C)n2)c1F` (configuration not stated), the pIC50 in assay [1] and in assay [2] was < 6.00 in each case.
Turning to `Cc1nc(NC(C)c2cccc(NC(=O)NC(N)=O)c2)cc(-c2ccc3ncsc3c2)n1` (configuration not stated), the pIC50 was < 6.00 in assay [1] and 6.30 in assay [2].
Turning to `COc1cccc([C@H](C)Nc2cc(-c3cc4ccccc4n3C)nc(C)n2)c1`, the pIC50 in assay [1] and in assay [2] was 6.30 throughout.
On to `Cc1nc(N[C@@H]2CCCc3ccccc32)cc(-c2cc3ccccc3s2)n1`, for which the pIC50 is < 6.00 in assay [1] and 6.30 in assay [2].
On the same counts, the results for `Cc1nc(NC(C)c2cccc(-c3cccc(F)c3)c2)cc(-c2ccc3ncsc3c2)n1` (configuration not stated) are < 6.00 and < 6.00.
The matching figures for `Cc1nc(NC(C)c2cccc(OCC3CCCN(C(=O)OC(C)(C)C)C3)c2)cc(-c2ccc3ncsc3c2)n1` (configuration not stated): < 6.00 and < 6.00.
With `Cc1nc(N[C@@H]2CCCc3ccccc32)cc(-c2ccc(C#N)cc2)n1`, the pIC50 in assay [1] and in assay [2] was < 6.00 each time.
Turning to `Cc1nc(NC(C)c2cccc(NS(=O)(=O)c3cn(C)cn3)c2)cc(-c2ccc3ncsc3c2)n1` (configuration not stated), the pIC50 in assay [1] and in assay [2] was < 6.00 in each case.
On to `Cc1nc(NC(C)c2ccc(F)c(-c3cnn(C)c3)c2)cc(-c2ccc3ncsc3c2)n1` (configuration not stated), for which the pIC50 is < 6.00 in assay [1] and 6.30 in assay [2].
Consider `Cc1nc(NC(C)c2cccc(OCC(=O)Nc3ccccc3)c2)cc(-c2ccc3ncsc3c2)n1` (configuration not stated), for which the pIC50 in assay [1] and in assay [2] was < 6.00 throughout.
Regarding `Cc1nc(NC(C)c2cccc(OCC#N)c2)cc(-c2ccc3ccn(C)c3c2)n1` (configuration not stated), the negative-log IC50 (pIC50) in assay [1] and in assay [2] was 6.30 each time.
Consider `COc1ccc(-c2cccc(C(C)Nc3cc(-c4ccc5ncsc5c4)nc(C)n3)c2)cn1` (configuration not stated), for which the pIC50 in assay [1] is < 6.00; in assay [2], 6.30.
The matching figures for `Cc1nc(NC(C)c2cccc(OCCS(C)(=O)=O)c2)cc(-c2ccc3ncsc3c2)n1` (configuration not stated): < 6.00 and < 6.00.
As for `Cc1nc(NC(C)c2cccc(OCc3cc(C)on3)c2)cc(-c2ccc3ncsc3c2)n1` (configuration not stated), the pIC50 in assay [1] and in assay [2] was 6.30 throughout.
Regarding `Cc1nc(NC(C)c2cccc(-c3ccnc(N)n3)c2)cc(-c2ccc3ncsc3c2)n1` (configuration not stated), the pIC50 in assay [2] was < 6.00.
Take `COC(=O)COc1ccc(F)c(CNc2cc(-c3ccc4ncsc4c3)nc(C)n2)c1`: the negative-log IC50 (pIC50) in assay [1] and in assay [2] was < 6.00 in each case.
For `COc1cccc(-c2cc(N[C@@H]3CCCc4ccccc43)nc(C)n2)c1F`, the pIC50 in assay [1] is < 6.00; in assay [2], 6.30.
The matching figures for `Cc1nc(NC(C)c2cccc(OCC3CCN(C(=O)OC(C)(C)C)CC3)c2)cc(-c2ccc3ncsc3c2)n1` (configuration not stated): < 6.00 and < 6.00.
On the same counts, the results for `Cc1nc(NC(C)c2cccc(OCC3CCCN(C(=O)OC(C)(C)C)C3)c2)cc(-c2ccc3occ(C)c3c2)n1` (configuration not stated) are < 6.00 and 6.30.
With `COc1ccc(F)c(CNc2cc(-c3ccc4ncsc4c3)nc(C)n2)c1`, the pIC50 in assay [1] was 6.30; in assay [2], < 6.00.
For `Cc1nc(N[C@@H]2CCCc3ccccc32)cc(-c2ccc3cnn(C)c3c2)n1`, the pIC50 in assay [1] and in assay [2] was 6.30 throughout.
With `Cc1nc(N[C@@H](C)c2cccc(-c3cnc(N4CCCCC4)nc3)c2)cc(-c2ccc3ncsc3c2)n1`, in assay [2], the pIC50 was 6.30.
`COc1ccc(-c2cc(NC(C)c3cccc(-c4cnn(C)c4)c3)nc(C)n2)cc1` (configuration not stated): the pIC50 in assay [1] and in assay [2] was 6.30 throughout.
With `Cc1cc(COc2ccc(F)c(CNc3cc(-c4ccc5ncsc5c4)nc(C)n3)c2)n(C)n1`, the negative-log IC50 (pIC50) in assay [1] and in assay [2] was < 6.00 in each case.
Consider `Cc1nc(N[C@@H]2CCOc3ccccc32)cc(-c2ccc3ncsc3c2)n1`, for which the negative logarithm of the IC50 (pIC50) in assay [1] and in assay [2] was < 6.00 in each case.
As to `Cc1nc(NC(C)c2cccc(OC(C)C(N)=O)c2)cc(-c2ccc3ncsc3c2)n1` (configuration not stated), the pIC50 is < 6.00 in assay [1] and 6.30 in assay [2].
`Cc1nc(NC(C)c2cccc(NC=O)c2)cc(-c2ccc3ncsc3c2)n1` (configuration not stated): the pIC50 in assay [1] and in assay [2] was < 6.00 each time.
Regarding `Cc1nc(NC(C)c2cccc(-c3cnn(C)c3)c2)cc(-c2cc(F)c(F)c(F)c2)n1` (configuration not stated), the pIC50 in assay [2] was 6.30.
Consider `Cc1nc(NCC2CCCN(C(=O)C3CCCC3)C2)cc(-c2ccc3ncsc3c2)n1` (configuration not stated), for which the figures for the negative logarithm of the IC50 (pIC50) in assay [1] and in assay [2] were 6.30 and < 6.00, respectively.
Turning to `Cc1nc(NC(C)c2ccc(Cl)c(O)c2)cc(-c2ccc3occ(C)c3c2)n1` (configuration not stated), the pIC50 in assay [1] is < 6.00; in assay [2], 6.30.
On the same counts, the results for `Cc1nc(NC(C)c2cccc(NC(N)=O)c2)cc(-c2ccc3ncsc3c2)n1` (configuration not stated) are < 6.00 and < 6.00.
On the same counts, the results for `Cc1nc(NC(C)c2cccc(-c3cnn(C)c3)c2)cc(-c2ccc(F)c(C)c2)n1` (configuration not stated) are < 6.00 and 6.30.
For `Cc1nc(N[C@H](C)c2cccc(-c3cnn(C)c3)c2)cc(-c2cccc(F)c2)n1`, the pIC50 in assay [2] is < 6.00.
For the compound `Cc1nc(NC(C)c2cccc(-c3cnn(C)c3)c2)cc(-c2ccc(Cl)cc2Cl)n1` (configuration not stated), the pIC50 in assay [1] and in assay [2] was 6.30 in each case.
Regarding `Cc1nc(NC(C)c2cccc(S(=O)(=O)NCCO)c2)cc(-c2ccc3ncsc3c2)n1` (configuration not stated), the pIC50 was 6.30 in assay [1] and < 6.00 in assay [2].
Turning to `Cc1nc(NC(C)c2cccc(-c3cnn(C)c3)c2)cc(-c2ccccc2C)n1` (configuration not stated), the pIC50 in assay [1] and in assay [2] was < 6.00 throughout.
For `Cc1nc(N[C@@H]2CCCc3ccccc32)cc(-c2ccc(C)c(O)c2)n1`, the pIC50 in assay [1] and in assay [2] was 6.30 in each case.
On to `Cc1nc(NCC2CCCNC2)cc(-c2ccc3ncsc3c2)n1` (configuration not stated), for which the pIC50 in assay [1] and in assay [2] was < 6.00 throughout.
Turning to `Cc1nc(N[C@H](C)c2ccnc(-c3cnn(C)c3)c2)cc(-c2ccc3occ(C)c3c2)n1`, in assay [2], the negative-log IC50 (pIC50) was < 6.00.
On to `CCN(CC)C(=O)COc1cccc(C(C)Nc2cc(-c3cccc(OC)c3F)nc(C)n2)c1` (configuration not stated), for which the negative logarithm of the IC50 (pIC50) in assay [1] and in assay [2] was < 6.00 in each case.
Turning to `Cc1nc(N[C@@H]2CCCc3ccccc32)cc(-c2cc3ccccc3[nH]2)n1`, the pIC50 in assay [1] and in assay [2] was < 6.00 in each case.
Regarding `Cc1cc(COc2ccc(F)c(C(C)Nc3cc(-c4ccc5ncsc5c4)nc(C)n3)c2)n(C)n1` (configuration not stated), the negative-log IC50 (pIC50) in assay [1] and in assay [2] was < 6.00 each time.
With `Cc1nc(NC(C)c2cccc(OCC3CCNCC3)c2)cc(-c2ccc3ncsc3c2)n1` (configuration not stated), the pIC50 in assay [1] and in assay [2] was 6.30 throughout.
As for `Cc1nc(N[C@H](C)c2cccc(O)c2)cc(-c2ccc3ncsc3c2)n1`, the pIC50 in assay [1] and in assay [2] was < 6.00 each time.
With `Cc1nc(NC(C)c2ccccc2C)cc(-c2ccc3occ(C)c3c2)n1` (configuration not stated), the negative logarithm of the IC50 (pIC50) in assay [1] and in assay [2] was < 6.00 in each case.
For `Cc1nc(NC(C)c2cccc(NC(=O)c3ccn(C)n3)c2)cc(-c2ccc3ncsc3c2)n1` (configuration not stated), the values for the pIC50 in assay [1] and in assay [2] were < 6.00 and 6.30, respectively.
The matching figures for `Cc1nc(NCC2CCCN(C(=O)C3(C)CC3)C2)cc(-c2ccc3ncsc3c2)n1` (configuration not stated): 6.30 and < 6.00.
In the case of `Cc1nc(NC(C)c2cccc(-c3cnn(C)c3)c2)cc(-c2ccc(C(C)C)cc2)n1` (configuration not stated), the negative-log IC50 (pIC50) is < 6.00 in assay [1] and 6.30 in assay [2].
The matching figures for `Cc1nc(NC(C)c2cccc(OCCn3cccn3)c2)cc(-c2ccc3ncsc3c2)n1` (configuration not stated): < 6.00 and 6.30.
On the same counts, the results for `COc1cccc([C@H](C)Nc2cc(-c3cnc4ccn(C)c4c3)nc(C)n2)c1` are < 6.00 and < 6.00.
The matching figures for `Cc1nc(NCc2cc(Br)ccc2F)cc(-c2ccc3ncsc3c2)n1`: < 6.00 and < 6.00.
For the compound `COc1cc(-c2cc(NC(C)c3cccc(O)c3)nc(C)n2)ccc1C` (configuration not stated), the pIC50 in assay [1] is < 6.00; in assay [2], 6.30.
On the same counts, the results for `Cc1nc(NC(C)c2cccc(OCC(=O)NCC(C)O)c2)cc(-c2ccc3ncsc3c2)n1` (configuration not stated) are 6.30 and < 6.00.
On the same counts, the results for `Cc1nc(NC(C)c2cccc(OCC(=O)C3CC3)c2)cc(-c2ccc3ncsc3c2)n1` (configuration not stated) are < 6.00 and < 6.00.
The matching figures for `COC(=O)COc1cccc(C(C)Nc2cc(-c3ccc4ncsc4c3)nc(C)n2)c1` (configuration not stated): < 6.00 and < 6.00.
